Data on seven compounds can be found in patent publication US6395906B1, “Intermediates to pesticidal 1-arylpyrazoles” (Rhone-Poulenc Inc., priority 1995, dated 2002).

Holding throughout (assay type): in vivo
Test [1] concerns cotton aphid (Aphis gossypii). In words: Cotton aphid (CA) foliar spray test. Conditions: cotton plants wet to runoff, 100 or 500 ppm; dead aphids counted after three days. The procedure: (§1) For the tick, aphids, souther armyworm, tobacco budworm, house fly, Mexican bean beetle, American cockroach, cat flea, souther corn rootworm, western corn rootworm, black cutworm, and southern root-knot nematode, a solution or suspension was prepared by adding the test compound to a solution of dimethylformamide, acetone, emulsifiers which are alkylaryl polyether alcohols organic sulfonates, and water. The result was a 100 or 500 ppm concentration of the test compound.
Buckthorn aphid (BA) or cotton aphid (CA): Adult and nymphal stages of buckthorn or cotton aphid were reared on potted dwarf nasturtium or cotton plants, respectively. Plants infested with 100-150 aphids were wet to runoff with the 100 or 500 ppm test compound formulation. As an untreated control, a water-acetone-DMF-emulsifier solution containing no test compound was also applied to runoff to infested plants. The treated plants were stored for one day for buckthorn aphid and three days for cotton aphid, after which the dead aphids were counted.

Test [2] concerns southern root-knot nematode (Meloidogyne incognita). In words: Southern root-knot nematode (SRKN) soil test. Conditions: soil treatment 23 kg/ha; tomato or cotton root galling rated after 2-3 weeks. How it is done: as §1
For the southern root-knot nematode tests, the water-acetone-DMF-emulsifier solution was adjusted for a treatment rate of 23 kg/ha soil concentration.
Southern root-knot nematode (SRKN): Eggs and second stage juveniles (J2s) of southern root-knot nematodes were obtained from infected roots of reared tomato plants. Pots containing moist soil were treated with the test compound solution for a treatment rate of 23 kg/ha. As an untreated control, an aliquot of a water-acetone-DMF-emulsifier solution containing no test compound was applied in a similar manner. Immediately after treatment, eggs or J2s of southern root-knot nematode were added to the treated soil. For test with cotton, the seeds were placed on top of the soil the day of treatment and inoculation. For the tests with tomato, the seedlings were transplanted in the pot three days after treatment. The pots were kept in the greenhouse for 2-3 weeks. At the termination of the test, roots of the tomato or cotton seedlings were evaluated for galling on a rating scale from 1 to 5 with one equal to severe galling, relative to untreated control, and five to no galling, i.e., complete control.

The subject of test [3] is southern armyworm (Spodoptera eridania). In words: Southern armyworm (SAW) treated bean leaf test. Conditions: bean leaves, 100 or 500 ppm; second instar larvae, five days. How it is done:
as §1
Southern armyworm (SAW), Mexican bean beetle (MBB): Bean leaves were wet to runoff with the 100 or 500 ppm test compound formulation. As an untreated control, a water-acetone-DMF-emulsifier solution containing no test compound was also applied wet to runoff to bean leaves. Five or six randomly selected second instar southern armyworn larvae or Mexican bean bettle larvae were introduced into each plastic container with the dry treated leaves. The container was closed and held for five days. Larvae which were unable to move the length of the body, even upon stimulation by prodding, were considered dead.

The subject of test [4] is southern corn rootworm (Diabrotica undecimpunctata howardi). The test can be described thus: Southern corn rootworm (SCRW) soil test. Conditions: soil concentration 2.5, 5, 6.75 or 10 ppm; mortality eight days after infestation. How it is done: as §1
For southern corn rootworm and black cutworm tests, the water-acetone-DMF-emulsifier solution was adjusted for a treatment rate of 2.5, 5, 6.75 or 10 ppm.
Southern corn rootworm (SCRW), Black cutworm (BCW): Corn seeds were placed in a glass jar and covered with dry sandy loam soil. The 500 ppm test formulation was applied for a soil concentration of 2.5, 5, 6.75 or 10 ppm. As an untreated control, an aliquot of a water-acetone-DMF-emulsifier solution containing no test compound was applied in a similar manner. After incubating covered for 24 hours, the soil was mixed and inoculated with approximately 25 southern corn rootworm eggs. Following an additional 48 hours, two late second to early third instar black cutworms were placed in the jar with a portion of insect diet. Eight days after infestation, mortality was assessed visually for cutworm and by Berlese funnel extraction for rootworm.

Test [5] concerns American cockroach (Periplaneta americana). In words: American cockroach (ACR) treated food pellet test. The note with it: food pellets with 500 ppm formulation; nymphs, contact and feeding mortality 1 and 5 days after infestation. How it is done: as §1
American cockroach (ACR): Cat food or dog food pellets were added to jars containing 1-2 mls of the 500 ppm test formulation. As an untreated control, an aliquot of a water-acetone-DMF-emulsifier solution containing no test compound was applied in a similar manner. After 48 hours, roach nymphs were added to the jar. Contact and feeding mortally was assessed 1 and 5 days after infestation.

In test [6] the test system is western corn rootworm (Diabrotica virgifera virgifera). The test can be described thus: Western corn rootworm (WCRW) soil test. Conditions: soil concentration 0.15 or 0.5 ppm; neonate larvae, mortality six days after infestation. The procedure: as §1
For the western corn rootworm test, the water-acetone-DMF-emulsifier solution was adjusted for a treatment rate of 0.15 or 0.5 ppm.
Western corn rootworm (WCRW): The 500 ppm test formulation was applied to dry sandy loam soil contained in a glass jar for a soil concentration of 0.15 or 0.5 ppm. As an untreated control, an aliquot of a water-acetone-DMF-emulsifier solution containing no test compound was applied in a similar manner. After incubating covered for 24 hours, the soil was mixed and four germinated corn seedlings were added to the jar. Ten neonate western corn rootworm larvae were placed in the jar. Six days after infestation, mortality was assessed by Berlese funnel extraction.

Test [7] deals with house fly (Musca domestica). In words: House fly (HF) bait test. The note with it: sucrose bait, 100 or 250 ppm; adult flies, mortality after 24 hours. The procedure:
as §1
For house fly tests, the water-acetone-DMF-emulsifier solution was adjusted with a 20% by weight aqueous solution of sucrose to provide a final 100 or 250 ppm concentration of the test compound.
House fly (HF): Four to six day old adult house flies were used. The files were immobilized by anesthetizing with carbon dioxide. A bait cup was prepared which contained the 100 or 250 ppm test compound formulation/sucrose solution and one or two absorbent cotton pad(s). As an untreated control, a water-acetone-DMF-emulsifier-sucrose solution containing no test compound was applied in a similar manner. The bait cup was introduced inside the cage prior to admitting 12-25 anesthetized flies. Mortality was assessed after 24 hours.

Test [8] has as its system tobacco budworm (Heliothis virescens). The test can be described thus: Tobacco budworm (TBW) treated cotton leaf test. The note with it: cotton leaves, 100 ppm; second instar larvae, five days. The procedure:
as §1
Tobacco budworm (TBW): Cotton leaves were wet to runoff with the 100 ppm test compound formulation. As an untreated control, a water-acetone-DMF-emulsifier solution containing no test compound was also applied wet to runoff to cotton leaves. Ten randomly selected second instar tobacco budworm larvae were introduced into plastic containers in which moist dental wicks and the dry treated leaves had been placed. The cups were closed and held for five days. Larvae which were unable to move the length of the body, even upon stimulation by prodding, were considered dead.

Molecules are shown by their SMILES.

Turning to `COC(OC)c1c(S(=O)(=O)C(F)(F)F)c(C#N)nn1-c1c(Cl)cc(C(F)(F)F)cc1Cl` [Compound 15, 3-Cyano-1-(2,6-dichloro-4-trifluoromethlphenyl)-5-dimethoxymethyl-4-trifluoromethylsulfonylpyrazole], in test [1], the CA entry is recorded as “+ (active against 1 or more insects described above up to 100% mortality. This activity is indicated by a “+”)”. Moreover, the SRKN result in test [2] is “+ (active against 1 or more insects described above up to 100% mortality. This activity is indicated by a “+”)”. In test [3], the SAW result was “+ (active against 1 or more insects described above up to 100% mortality. This activity is indicated by a “+”)”. The SCRW entry in test [4] is “+ (active against 1 or more insects described above up to 100% mortality. This activity is indicated by a “+”)”. In test [5], the ACR entry is “+ (active against 1 or more insects described above up to 100% mortality. This activity is indicated by a “+”)”. Also, the WCRW result in test [6] is reported as “+ (active against 1 or more insects described above up to 100% mortality. This activity is indicated by a “+”)”. Also, in test [7], the HF result is “+ (active against 1 or more insects described above up to 100% mortality. This activity is indicated by a “+”)”.

As for `COC(OC)c1c([S+]([O-])C(F)(F)F)c(C#N)nn1-c1c(Cl)cc(C(F)(F)F)cc1Cl` (stereo not shown) [Compound 13, 3-Cyano-1-(2,6-dichloro-4-trifluoromethylphenyl)-5-dimethoxymethyl-4-trifluoromethylsulfinylpyrazole], the CA result in test [1] is on record as “+ (active against 1 or more insects described above up to 100% mortality. This activity is indicated by a “+”)”. Further, the SRKN result in test [2] is recorded as “+ (active against 1 or more insects described above up to 100% mortality. This activity is indicated by a “+”)”. Also, in test [8], the TBW result was “+ (active against 1 or more insects described above up to 100% mortality. This activity is indicated by a “+”)”. For the same compound, the ACR result in test [5] is recorded as “+ (active against 1 or more insects described above up to 100% mortality. This activity is indicated by a “+”)”. Also, the WCRW result in test [6] is recorded as “+ (active against 1 or more insects described above up to 100% mortality. This activity is indicated by a “+”)”.

On to `COC(C#N)c1c(S(=O)(=O)C(F)(F)F)c(C#N)nn1-c1c(Cl)cc(C(F)(F)F)cc1Cl` (stereo not shown) [Compound 16, 3-Cyano-5-{(1-cyano-1-methoxy)methyl}-1-(2,6-dichloro-4-trifluoromethylphenyl)-4-trifluoromethylsulfonylpyrazole], for which, in test [3], the SAW result is “+ (active against 1 or more insects described above up to 100% mortality. This activity is indicated by a “+”)”. The SCRW result in test [4] is recorded as “+ (active against 1 or more insects described above up to 100% mortality. This activity is indicated by a “+”)”. In addition, the TBW result in test [8] is on record as “+ (active against 1 or more insects described above up to 100% mortality. This activity is indicated by a “+”)”. In addition, the ACR result in test [5] is “+ (active against 1 or more insects described above up to 100% mortality. This activity is indicated by a “+”)”. In test [6], the WCRW result was “+ (active against 1 or more insects described above up to 100% mortality. This activity is indicated by a “+”)”. For the same compound, in test [7], the HF result is on record as “+ (active against 1 or more insects described above up to 100% mortality. This activity is indicated by a “+”)”.

On to `N#Cc1nn(-c2c(Cl)cc(C(F)(F)F)cc2Cl)c(C=O)c1SC(F)(F)F` [Compound 2, 3-Cyano-1-(2,6-dichloro-4-trifluoromethylphenyl)-5-formyl-4-trifluoromethylthiopyrazole], for which, in test [6], the WCRW entry was “+ (active against 1 or more insects described above up to 100% mortality. This activity is indicated by a “+”)”.

Take `COC(C#N)c1c(SC(F)(F)F)c(C#N)nn1-c1c(Cl)cc(C(F)(F)F)cc1Cl` (stereo not shown) [Compound 6, 3-Cyano-5-{(1-cyano-1-methoxy)methyl}-1-(2,6-dichloro-4-trifluoromethylphenyl)-4-trifluoromethylthiopyrazole]: the CA result in test [1] is given as “+ (active against 1 or more insects described above up to 100% mortality. This activity is indicated by a “+”)”. Further, the SAW result in test [3] is on record as “+ (active against 1 or more insects described above up to 100% mortality. This activity is indicated by a “+”)”. Further, in test [4], the SCRW result is “+ (active against 1 or more insects described above up to 100% mortality. This activity is indicated by a “+”)”. For the same compound, in test [6], the WCRW entry was “+ (active against 1 or more insects described above up to 100% mortality. This activity is indicated by a “+”)”. Besides, the HF entry in test [7] is reported as “+ (active against 1 or more insects described above up to 100% mortality. This activity is indicated by a “+”)”.

Take `COC(OC)c1c(SC(F)(F)F)c(C#N)nn1-c1c(Cl)cc(C(F)(F)F)cc1Cl` [Compound 4, 3-Cyano-1-(2,6-dichloro-4-trifluoromethylphenyl)-5-dimethoxymethyl-4-trifluoromethylthiopyrazole]: the WCRW result in test [6] was “+ (active against 1 or more insects described above up to 100% mortality. This activity is indicated by a “+”)”.

Take `CN(C)N=Cc1c(SC(F)(F)F)c(C#N)nn1-c1c(Cl)cc(C(F)(F)F)cc1Cl` [Compound 11, 3-Cyano-1-(2,6-dichloro-4-trifluoromethylphenyl)-5-(N,N-dimethylaminoiminomethylidenyl)-4-trifluoromethylthiopyrazole]: in test [4], the SCRW result is recorded as “+ (active against 1 or more insects described above up to 100% mortality. This activity is indicated by a “+”)”. For the same compound, the WCRW entry in test [6] is reported as “+ (active against 1 or more insects described above up to 100% mortality. This activity is indicated by a “+”)”. Further, the HF entry in test [7] was “+ (active against 1 or more insects described above up to 100% mortality. This activity is indicated by a “+”)”.
